Assay results from publication PMC12154458, “High-Throughput Screens of Repurposing Hub and DOS Chemical Libraries Reveal Compounds with Novel and Potent Inhibitory Activity Against the Essential Non-Neuronal Acetylcholinesterase of Schistosoma mansoni (SmTAChE)” (International Journal of Molecular Sciences, 2025).
“Also recorded” adds a separate entry of the source. Like-named read-outs stand apart in the source and are kept apart here.

How the values were obtained:
[1] = target: T1, rSmTAChE (Schistosoma mansoni, UniProt A0A3Q0KMM5); experiment: biochemical; conditions: for inhibition at 20 µM: read-out: rSmTAChE HTS Inhibition (Ave, %)
[2] = target: T1, rSmTAChE; type: biochemical
[3] = target: recombinant human acetylcholinesterase, rHsAChE (Homo sapiens, UniProt P22303); experiment: biochemical
[4] = read-out: qAC50 (IC50), rSmTAChE
[5] = read-out: qAC50 (IC50), rHsAChE
[6] = dose response analysis of Drug Repurposing Hub hits against rHsAChE
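Throughout, for Inhibition (%) (Average): mostly 20 µM final but a few compounds at 5 or 10 µM.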
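Throughout, for Inhibition (%) Replicate A: mostly 20 µM final but a few compounds at 5 or 10 µM.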
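Throughout, for Inhibition (%) Replicate B: mostly 20 µM final but a few compounds at 5 or 10 µM.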

T1 sequence (A0A3Q0KMM5 27-661 limits assumed): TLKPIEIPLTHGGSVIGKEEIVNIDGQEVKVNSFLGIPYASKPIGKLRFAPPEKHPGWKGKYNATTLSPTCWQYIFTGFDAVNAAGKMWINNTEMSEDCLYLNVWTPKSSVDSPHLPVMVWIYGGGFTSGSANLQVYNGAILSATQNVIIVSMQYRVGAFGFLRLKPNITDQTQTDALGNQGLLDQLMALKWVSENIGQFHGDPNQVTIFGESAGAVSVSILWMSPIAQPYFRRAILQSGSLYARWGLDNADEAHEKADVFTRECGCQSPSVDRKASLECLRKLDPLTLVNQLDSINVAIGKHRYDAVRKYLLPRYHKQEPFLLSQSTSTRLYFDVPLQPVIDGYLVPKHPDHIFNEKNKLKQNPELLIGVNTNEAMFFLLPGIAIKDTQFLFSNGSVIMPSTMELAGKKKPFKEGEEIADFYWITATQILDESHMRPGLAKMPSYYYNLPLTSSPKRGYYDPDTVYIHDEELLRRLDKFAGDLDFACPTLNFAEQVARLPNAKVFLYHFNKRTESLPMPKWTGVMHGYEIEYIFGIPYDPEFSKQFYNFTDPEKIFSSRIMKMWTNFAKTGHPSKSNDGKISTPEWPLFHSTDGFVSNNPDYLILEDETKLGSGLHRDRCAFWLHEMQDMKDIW
Sequence of recombinant human acetylcholinesterase, rHsAChE (P22303 32-614): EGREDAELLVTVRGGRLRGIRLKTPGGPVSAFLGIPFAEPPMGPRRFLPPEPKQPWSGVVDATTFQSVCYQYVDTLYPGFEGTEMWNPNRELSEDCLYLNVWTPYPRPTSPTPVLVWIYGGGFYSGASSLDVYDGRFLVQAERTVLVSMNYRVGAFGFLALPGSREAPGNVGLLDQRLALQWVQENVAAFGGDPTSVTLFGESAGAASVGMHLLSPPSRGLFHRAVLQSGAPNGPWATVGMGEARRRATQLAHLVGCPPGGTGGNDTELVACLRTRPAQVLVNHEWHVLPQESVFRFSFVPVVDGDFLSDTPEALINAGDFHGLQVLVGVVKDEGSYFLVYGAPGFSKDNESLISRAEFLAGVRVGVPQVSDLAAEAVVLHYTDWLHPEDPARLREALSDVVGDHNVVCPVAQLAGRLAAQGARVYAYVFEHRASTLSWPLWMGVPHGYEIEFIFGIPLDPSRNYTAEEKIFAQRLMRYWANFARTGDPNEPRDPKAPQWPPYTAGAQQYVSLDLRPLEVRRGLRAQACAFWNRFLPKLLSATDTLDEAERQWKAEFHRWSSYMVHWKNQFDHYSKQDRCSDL

| Compound | Inhibition (%) Replicate A [1] [%] | Inhibition (%) Replicate B [1] [%] | Data Mode (curve class), rSmTAChE [2] | Data Mode (curve class), rHsAChE [3] | Inhibition (%) (Average) [1] | further results |
| --- | --- | --- | --- | --- | --- | --- |
| O=C(Nc1ncc(SCCN2CCCC2)s1)[C@]1(c2ccc(S(=O)(=O)C3CC3)cc2)C[C@H]1C1CCCCC1 [LY2608204, reference compound] | 71.61 | 81.29 | decreasing (weakly active) | decreasing |  | rSmTAChE HTS Inhibition (Ave, %) ([1]; 20 µM): 76.45%; IC50 ([2]; read-out: IC50 (µM) rSmTAChE): > 12 µM; SI (Sm/Hs) [3]: 23.28; IC50 ([3]; read-out: IC50 (µM) rHsAChE): 0.52 µM |
| CC(C)n1cnc2c(NCCc3ccc(O)cc3)nc(-c3csc4ccccc34)nc21 [BRD-K36739687-001-03-0] | 70.28 | 65.85 | inactive | inactive | 68.06 |  |
| CCCCc1oc2ccc(NS(C)(=O)=O)cc2c1C(=O)c1ccc(OCCCN(CCCC)CCCC)cc1 [BRD-K05524748-003-04-4] | 74.52 | 77.02 | decreasing (weakly active) | decreasing (weakly active) | 75.77 | IC50 [2, 4]: > 38 µM; IC50 [3, 5]: > 38 µM |
| COc1cccc(C#Cc2ccc([C@H]3[C@@H](CO)N(C(=O)c4ccccn4)[C@H]3C#N)cc2)c1 [BRD-K64190282-004-01-8, (2R,3R,4S)-4-(hydroxymethyl)-3-[4-[2-(3-methoxyphenyl)ethynyl]phenyl]-1-[oxo(2-pyridinyl)methyl]-2-azetidinecarbonitrile] |  |  |  |  |  | inhibition at 20 µM [1]: 92.2%; SI (Hs/Sm) [2]: 2.59; rSmTAChE Data Mode [2]: decreasing; IC50 ([3]; Table 2, DOS-A library, Inactive = inactive at the maximum tested concentration (40 µM), read-out: IC50 (µM) rHsAChE): 33.7 µM; rHsAChE Data Mode ([3]; dose response curve classification, Table S4, DOS-A): decreasing |
| CCCCC(CC)CCC(CC(C)C)OS(=O)(=O)O (centres unmarked) [Sodium-tetradecyl-sulfate, reference compound] |  |  | decreasing |  |  | inhibition at 20 µM [1]: 74.7%; SI (Sm/Hs) [3]: 2.01; IC50 ([3]; Table 3, read-out: IC50 (µM) rHsAChE): 5.66 µM; Data Mode (curve class), rHsAChE [3, 6]: decreasing |
| N#C[C@H]1[C@@H](c2ccc(C#CC3CC3)cc2)[C@@H](CO)N1C(=O)Cc1ccccn1 [BRD-K68325500-004-02-0] | 63.64 | 66.02 |  |  | 64.83 | rSmTAChE Data Mode [2]: inactive; rHsAChE Data Mode [3]: inactive |
| N.N.[Cl][Pt][Cl] [Cisplatin, reference compound] | 89.47 | 88.99 | decreasing | decreasing (weakly active) | 89.23 | HTS/rSmTAChE Inhibition (Ave, %) ([1]; 20 µM): 89.23%; SI (Hs/Sm) [2]: 9.97; fold greater potency/selectivity for SmTAChE vs. HsAChE (Selectivity Index) [2]: about 10 fold; IC50 ([2]; read-out: IC50 (µM) rSmTAChE): 3.81 µM |
| COc1ccc(C#Cc2ccc3c(c2)O[C@@H](CN(C)S(=O)(=O)c2ccccc2F)[C@@H](C)CN([C@@H](C)CO)S3(=O)=O)cc1 [BRD-K10241968-001-01-1] | 63.23 | 62.84 |  |  | 63.03 | rSmTAChE Data Mode [2]: inactive; rHsAChE Data Mode [3]: inactive |
| O=C(O)CNC(=O)c1c(O)c2ccccc2n(Cc2ccccc2)c1=O [IOX2, reference compound] | 61.67 | 70.82 | decreasing | decreasing |  | rSmTAChE HTS Inhibition (Ave, %) ([1]; 5 µM): 66.25%; IC50 ([2]; read-out: IC50 (µM) rSmTAChE): 16.7 µM; IC50 [2, 4]: 16.7 µM; SI (Sm/Hs) [3]: 2.16; IC50 ([3]; read-out: IC50 (µM) rHsAChE): 7.75 µM |
| SR-33805 [reference compound] | 73.90 | 74.62 | decreasing |  | 74.26 | HTS/rSmTAChE Inhibition (Ave, %) ([1]; 5 µM): 74.26%; IC50 ([2]; read-out: IC50 (µM) rSmTAChE): 6.82 µM; IC50 (µM) rHsAChE [3]: Inactive; inhibition of rHsAChE, result in words [3]: no inhibition detected; also recorded: no activity detected |
| COc1ccc(C#Cc2ccc3c(c2)O[C@H](CN(C)S(=O)(=O)c2ccccc2F)[C@@H](C)CN([C@@H](C)CO)S3(=O)=O)cc1 [BRD-K14241686-001-01-8] | 70.53 | 69.31 |  |  | 69.92 | rSmTAChE Data Mode [2]: decreasing (weakly active); rHsAChE Data Mode [3]: inactive |
| Clc1ccc(C(Cn2ccnc2)OCc2ccc(Sc3ccccc3)cc2)c(Cl)c1 (centres unmarked) [BRD-A33697453-008-02-4] | 64.14 | 76.40 | inactive | inactive | 70.27 |  |
| COC(=O)CCSCc1ccc(-c2onc(C)c2NC(=O)OC(C)c2ccccc2Cl)cc1 (centres unmarked) [BRD-A94323479-001-02-8] | 60.59 | 73.75 | inactive | decreasing (weakly active) | 67.17 | IC50 [3, 5]: > 38 µM |
| COC(=O)C1=C(C)NC(C)=C(C(=O)OC(C)(C)CN(C)CCC(c2ccccc2)c2ccccc2)C1c1cccc([N+](=O)[O-])c1 (centres unmarked) [BRD-A18992208-003-02-7] | 77.49 | 78.79 | inactive | inactive | 78.14 |  |
| O=C(NCCCCN1CCN(c2cccc(Cl)c2Cl)CC1)c1ccc2c(c1)Cc1ccccc1-2 [BRD-K05181084-003-04-5] | 63.93 | 60.23 | inactive | inactive | 62.08 |  |
| C[C@H](NC(=O)C(C)(C)Oc1ccc(C(F)(F)F)cn1)[C@@H](Cc1ccc(Cl)cc1)c1cccc(C#N)c1 [BRD-K35169477-001-01-9] | 60.97 | 64.40 | inactive | decreasing (weakly active) | 62.68 | IC50 [3, 5]: > 13.5 µM |
| C[C@@H]1C[C@H]2[C@@H]3CCC4=CC(=O)C=C[C@]4(C)[C@@]3(Cl)[C@@H](O)C[C@]2(C)[C@@]1(OC(=O)c1ccco1)C(=O)CCl [BRD-K60640630-001-11-0] | 69.48 | 74.46 | decreasing (weakly active) | inactive | 71.97 | IC50 [2, 4]: > 38 µM |
| O=C(C[C@@H]1C=C[C@@H](NC(=O)c2ccncc2)[C@H](CO)O1)Nc1ccc(-c2ccccc2)cc1 [BRD-K45095313-001-01-2] | 60.65 | 61.57 |  |  | 61.11 | rSmTAChE Data Mode [2]: inactive; rHsAChE Data Mode [3]: inactive |
| Clc1ccc(C(c2ccccc2Cl)C(Cl)Cl)cc1 (centres unmarked) [BRD-A31204924-001-14-2] | 71.94 | 70.66 | inactive | decreasing (weakly active) | 71.30 | IC50 [3, 5]: > 38 µM |
| COc1ccc(NC(=O)Nc2ccc3c(c2)[C@H]2C[C@@H](CC(=O)NCc4ccccn4)O[C@@H](CO)[C@H]2O3)cc1 [BRD-K46319090-001-01-4] | 88.58 | 90.08 |  |  | 89.33 | rSmTAChE Data Mode [2]: decreasing; IC50 ([2]; read-out: rSmTAChE qAC50): 37.8 µM; rHsAChE Data Mode [3]: inactive |
| COc1ccc(C#Cc2ccc3c(c2)O[C@@H](CN(C)S(=O)(=O)c2ccccc2F)[C@@H](C)CN([C@H](C)CO)S3(=O)=O)cc1 [BRD-K67027685-001-01-8] | 69.23 | 73.51 |  |  | 71.37 | rSmTAChE Data Mode [2]: inactive; rHsAChE Data Mode [3]: inactive |
| O=C(Nc1ccccc1Br)N[C@@H]1CCN(c2ccc(C(F)(F)F)cn2)C1 [BRD-K65991129-001-02-9] | 67.06 | 63.99 | inactive | inactive | 65.52 |  |
| C#C[C@]1(OC(C)=O)CC[C@H]2[C@@H]3CCC4=C[C@@H](OC(C)=O)CC[C@@H]4[C@H]3CC[C@@]21C [BRD-K46331928-001-05-8] | 95.51 | 94.31 | decreasing (weakly active) | inactive | 94.91 | IC50 [2, 4]: > 38 µM |
| CC#C[C@@H](CC(=O)O)c1ccc(OCc2cccc(-c3ccc(C(F)(F)F)cc3)c2)cc1 [BRD-K43802723-340-01-9] | 80.42 | 79.10 | decreasing | decreasing | 79.76 | IC50 [2, 4]: 13.4 µM; IC50 [3, 5]: 15.4 µM |
| CCCCCCCCCCCC1=C(O)C(=O)C=C(O)C1=O [Embelin, reference compound] |  |  | decreasing |  |  | inhibition at 10 µM ([1]; read-out: HTS/rSmTAChE Inhibition (Ave, %)): 88.7%; SI (Hs/Sm) [2]: 1.44; fold greater potency/selectivity for SmTAChE vs. HsAChE (Selectivity Index) [2]: 1.4 fold; IC50 ([3]; IC50 (µM) rHsAChE): 1.8 µM; Data Mode (curve class), rHsAChE [3, 6]: decreasing |
| CCCCCCCCCCCCCCCC[N+](C)(C)CCN(Cc1ccc(OC)cc1)c1ncccn1 [Thonzonium bromide, reference compound] |  |  | decreasing |  |  | inhibition at 20 µM [1]: 67%; SI (Sm/Hs) [3]: 2.92; IC50 ([3]; IC50 (µM) rHsAChE): 0.38 µM; Data Mode (curve class), rHsAChE [3, 6]: decreasing |
